From ChEMBL document CHEMBL1671858, “Coprevalence of plasmid-mediated quinolone resistance determinants QepA, Qnr, and AAC(6')-Ib-cr among 16S rRNA methylase RmtB-producing Escherichia coli isolates from pigs” (2008)
In brackets after ≈: the same amount, converted by molar mass.

How the values were obtained:
Assay type in all cases: functional
Escherichia coli [1] = experiment: Antimicrobial activity against Escherichia coli isolate GZ4 PFGE type A2 harboring qepA gene by agar dilution method
Escherichia coli [2] = experiment: Antimicrobial activity against Escherichia coli isolate GZ8 PFGE type C harboring qepA gene by agar dilution method
Escherichia coli [3] = experiment: Antimicrobial activity against Escherichia coli isolate GZ12 PFGE type F harboring qepA gene by agar dilution method
Escherichia coli [4] = experiment: Antimicrobial activity against Escherichia coli isolate GZ13 PFGE type F harboring qepA gene by agar dilution method
Escherichia coli [5] = experiment: Antimicrobial activity against Escherichia coli isolate CQ2 PFGE type I2 harboring qepA gene by agar dilution method
Escherichia coli [6] = experiment: Antimicrobial activity against Escherichia coli isolate CQ20 PFGE type J1 harboring qepA gene by agar dilution method
Escherichia coli [7] = experiment: Antimicrobial activity against Escherichia coli isolate CQ12 PFGE type Q harboring qepA gene by agar dilution method
Escherichia coli [8] = experiment: Antimicrobial activity against Escherichia coli isolate CQ16 PFGE type Q harboring qepA gene by agar dilution method
Escherichia coli [9] = experiment: Antimicrobial activity against Escherichia coli isolate GZ10 PFGE type R harboring qepA gene by agar dilution method
Escherichia coli [10] = experiment: Antimicrobial activity against Escherichia coli isolate CQ19 PFGE type S harboring qepA gene by agar dilution method
Escherichia coli [11] = experiment: Antimicrobial activity against Escherichia coli isolate GZ4 transconjugant harboring 16S rRNA methylase RmtB and qepA by agar dilution method relative to recipient strain
Escherichia coli [12] = experiment: Antimicrobial activity against Escherichia coli isolate GZ5 transconjugant harboring 16S rRNA methylase RmtB and qepA by agar dilution method relative to recipient strain
Escherichia coli [13] = experiment: Antimicrobial activity against Escherichia coli isolate GZ6 transconjugant harboring 16S rRNA methylase RmtB and qepA by agar dilution method relative to recipient strain
Escherichia coli [14] = experiment: Antimicrobial activity against Escherichia coli isolate GZ8 transconjugant harboring 16S rRNA methylase RmtB and qepA by agar dilution method relative to recipient strain
Escherichia coli [15] = experiment: Antimicrobial activity against Escherichia coli isolate CQ18 transconjugant harboring 16S rRNA methylase RmtB and qepA by agar dilution method relative to recipient strain
Escherichia coli [16] = experiment: Antimicrobial activity against Escherichia coli isolate CQ2 transconjugant harboring 16S rRNA methylase RmtB and qepA by agar dilution method relative to recipient strain
Escherichia coli [17] = experiment: Antimicrobial activity against Escherichia coli isolate GZ1 transconjugant harboring 16S rRNA methylase RmtB and qnrS1 by agar dilution method relative to recipient strain
Escherichia coli [18] = experiment: Antimicrobial activity against Escherichia coli isolate CQ16 transconjugant harboring 16S rRNA methylase RmtB and qepA, qnrS2, aac(6')-Ib-cr gene by agar dilution method relative to recipient strain
Escherichia coli [19] = experiment: Antimicrobial activity against Escherichia coli isolate GZ10 transconjugant harboring 16S rRNA methylase RmtB and qepA, aac(6')-Ib-cr gene by agar dilution method relative to recipient strain

CCN1CCN(c2cc3c(cc2F)c(=O)c(C(=O)O)cn3C2CC2)CC1 [ENROFLOXACIN]
MIC (Escherichia coli [1]): 32 µg/mL (≈ 89 µM)
MIC (Escherichia coli [2]): 64 µg/mL (≈ 178 µM)
MIC (Escherichia coli [3]): 16 µg/mL (≈ 44.5 µM)
MIC (Escherichia coli [4]): 8 µg/mL (≈ 22.3 µM)
MIC (Escherichia coli [5]): 2 µg/mL (≈ 5.56 µM)
MIC (Escherichia coli [6]): 0.03 µg/mL (≈ 0.0835 µM)
MIC (Escherichia coli [7]): 2 µg/mL (≈ 5.56 µM)
MIC (Escherichia coli [8]): 2 µg/mL (≈ 5.56 µM)
MIC (Escherichia coli [9]): 16 µg/mL (≈ 44.5 µM)
MIC (Escherichia coli [10]): 2 µg/mL (≈ 5.56 µM)
fold change (FC) (Escherichia coli [11]): 4
fold change (FC) (Escherichia coli [12]): 8
fold change (FC) (Escherichia coli [13]): 2
fold change (FC) (Escherichia coli [14]): 16
fold change (FC) (Escherichia coli [15]): 1
fold change (FC) (Escherichia coli [16]): 16
fold change (FC) (Escherichia coli [17]): 32
fold change (FC) (Escherichia coli [18]): 2
fold change (FC) (Escherichia coli [19]): 4
